Measurements: US20250231189A1, “MEASURING FREQUENCY OF PATHOGEN-SPECIFIC T CELLS IN […] AS E[…] TCR-INDUCED CA(2+) SIGNALING” (Thomas Jefferson University, priority 2017, published 2025)
Entries after “also recorded” stand apart in the source; their conditions may differ.

System: cloned T cells (68A62)
Assay: Ca2+ mobilization pattern in individual T cells of a T-cell monolayer (Fluo-4 fluorescence microscopy)
Format: cell-based, human
Details: for fraction of T cells with slower Ca2+ mobilization (pattern of inefficient T cells) / fraction of cells with rapid/strong and sustained pattern of Ca2+ flux: CTL clone 68A62, strong agonist peptide 10^-4 M IV9, FIG. 4
Text: HIV- and Flu-specific human CD8+ T cell clones, termed 68A62 and CER43, were kindly provide by Bruce Walker and Antonio Lanzavecchia, correspondingly. These T cells recognize […] (IV9) and […] (GL9) peptides, respectively, both presented by HLA-A2 MHC class I. 115iX is a CD8+ T cell line developed from CTL D3 as a result of spontaneous mutation in its TCR β chain resulting in loss of specificity for its natural ligand (Anikeeva and Sykulev, unpublished). These were used as T cells with irrelevant specificity. After stimulation with a mixture of allogeneic PBMC and IL2 the cells are typically used in resting stage, 12-17 days after the stimulation as previously described.
10^6 cells in 1 ml of PBS were loaded with Fluo-4 (Life Technologies) at 2-4 μM for 30 min at 37° C. in the presence of 0.02% pluoronic acid F-127 and 4 mM Probenecid. The cells were washed free of unreacted reagents and incubated at 37° C. for additional 30 min. The cells were then re-suspended in the assay buffer (Dulbecco's PBS containing 1 mM CaCl2, 2 mM MgCl2, 5 mM glucose, and 0.025% BSA) and used for Ca2+ flux analysis.
Glass bottom of 96 well MatTec plates was covered with poly-L-Lysine (Sigma, mol wt>300,000) at 0.1 mg/ml for 1 hr at room temperature. After washing with DPBS and add water, TS2/4 non-blocking mAb specific for LFA-1 were added to the plate at concentration 10 μg/ml overnight & 4° C. The wells were washed with DPBS, and 3×10^5 Fluo-4-labeled T cells in 100 μl of the assay buffer were added to each well. The plates were centrifuged for 200 g for one minute and were incubated for 30 min at room temperature prior to the imaging. Suspended cells were removed by gentle washing with assay buffer. The quality of T cell monolayer was assessed using bright field microscopy.
To identify responding T cells we imaged T-cell monolayers before (background measurement) and after (response) addition of the stimulatory signal such as agonist peptide. The images of T-cell monolayers were taken at various exposure times using 10× or 20× objectives. Instead of averaging the entire set of stimulatory signal against an agonist peptide, we identified sets of cells, having different response rates and then averaged these, now separated sets of cells. This is in direct contrast to the general averaging strategy provided in PCT/US2016/039313. In some experiments Ca2+ response was also initiated by ionomycin at 10 μg/ml to optimize exposure time (data not shown). The average intensity of images prior and after the T-cell stimulation at various time points and the numbers of individual responding cells per imaging field were determined by MetaMorph software.
Glass bottom of 96-well plates was covered with poly-L-Lysine to capture TS2/4 antibody recognizing LFA-1 adhesion receptor without blocking LFA-1 functional activity. Cloned CD8 T cells with known specificity or polyclonal CD8 T cells were labeled with Ca2+ fluorophore Fluor-4 and added to the wells. The quality of the T-cell monolayers was evident from analysis of bright field images of the immobilized T cells on the glass bottom of the plate. This method allows T cells to form a continuous monolayer allowing the T cells to contact each other, which is necessary for presentation and recognition of pMHC on one T cell by another T cell.
The immobilized cells, after they are provided with stimulation of a peptide, can be imaged. Accordingly, we can take a first image, to identify the background image of each individual cell, before and after the stimulation. Accordingly, we can look at the calcium concentration of each individual cell across time. By looking at each cell, we can then determine and add them to one of three boxes for responding cells, and then a fourth type of cell that is either non-responsive or there is calcium flux that happens with or without stimulation-this typically results in a sharp peak of intensity that quickly diminishes.

[1] = listed as strong agonist ligand

Sequence: ILKEPVHGV [IV9, peptide from HIV reverse transcriptase, presented by HLA-A2, recognized by CTL clone 68A62]
- pattern of Ca2+ response of majority of T cells (CD8 CTL 68A62, 10^-4 M IV9 peptide, FIG. 4): rapid and sustaine
- fraction of T cells with slower Ca2+ mobilization (pattern of inefficient T cells): 20%
- fraction of cells with rapid/strong and sustained pattern of Ca2+ flux: about 90%
- fraction of T cells with slower Ca2+ mobilization (pattern of inefficient T cells) [1]: less than 20%
- fraction of cells with rapid/strong and sustained pattern of Ca2+ flux [1]: More than 80%
- pattern of Ca2+ response of majority of T cells (CTL clone 68A62, suboptimal (much lower) concentration of the strong agonist peptide, FIG. 6): rapid and oscillating pattern of Ca2+ mobilization; also recorded: quick, but oscillating
- pattern of Ca2+ response of majority of T cells (CTL clone 68A62, suboptimal (much lower) concentration of the strong agonist peptide, FIG. 6, listed as strong agonist pMHC ligand): slow oscillating kinetics of Ca2+ mobilization
